# The source made the active and inactive calls. The calls are words filed in the database; no cut-off is given here.
# Legend:
# [1] = tested on: Mus musculus; assay: Anti-colitis activity against DSS-induced BALB/c mouse model of subchronic relapsing colitis assessed as effect on colon length at 100 mg/kg/day, po administered for 7 days in second week during 2 weeks DSS challenge and measured at the end of 2nd week; type: functional, organism-based; settings: time 7.0 day
# [2] = tested on: Mus musculus; assay: Anti-colitis activity against DSS-induced BALB/c mouse model of subchronic relapsing colitis assessed as reduction in fecal blood at 100 mg/kg/day, po administered for 7 days in second week during 2 weeks DSS challenge and measured at the end of 2nd week; type: functional, organism-based; settings: time 7.0 day
# [3] = tested on: Mus musculus; assay: Anti-colitis activity against DSS-induced BALB/c mouse model of subchronic relapsing colitis assessed as increase in body weight at 100 mg/kg/day, po administered for 7 days in second week during 2 weeks DSS challenge and measured at the end of 2nd week; type: functional, organism-based; settings: time 7.0 day
# [4] = tested on: Mus musculus; assay: Anti-colitis activity against DSS-induced BALB/c mouse model of subchronic relapsing colitis assessed as increase in softening of feces at 100 mg/kg/day, po administered for 7 days in second week during 2 weeks DSS challenge and measured at the end of 2nd week; type: functional, organism-based; settings: time 7.0 day
# [5] = tested on: Mus musculus; assay: Anti-colitis activity against DSS-induced BALB/c mouse model of subchronic relapsing colitis assessed as decrease in colon weight to length ratio at 100 mg/kg/day, po administered for 7 days in second week during 2 weeks DSS challenge and measured at the end of 2nd week; type: functional, organism-based; settings: time 7.0 day
# [6] = tested on: Mus musculus; assay: Anti-colitis activity against DSS-induced BALB/c mouse model of subchronic relapsing colitis assessed as effect on colon length at 100 mg/kg/day, ip administered on days 1 and 3 of second week during 2 weeks DSS challenge and measured at the end of 2nd week; type: functional, organism-based; settings: time 1.0 weeks
# [7] = tested on: Mus musculus; assay: Anti-colitis activity against DSS-induced BALB/c mouse model of subchronic relapsing colitis assessed as reduction in fecal blood at 100 mg/kg/day, ip administered on days 1 and 3 of second week during 2 weeks DSS challenge and measured at the end of 2nd week; type: functional, organism-based; settings: time 1.0 weeks
# [8] = tested on: Mus musculus; assay: Anti-colitis activity against DSS-induced BALB/c mouse model of subchronic relapsing colitis assessed as increase in body weight at 100 mg/kg/day, ip administered on days 1 and 3 of second week during 2 weeks DSS challenge and measured at the end of 2nd week; type: functional, organism-based; settings: time 1.0 weeks
# [9] = tested on: Mus musculus; assay: Anti-colitis activity against DSS-induced BALB/c mouse model of subchronic relapsing colitis assessed as increase in softening of feces at 100 mg/kg/day, ip administered on days 1 and 3 of second week during 2 weeks DSS challenge and measured at the end of 2nd week; type: functional, organism-based; settings: time 1.0 weeks
# [10] = biological target: Glycogen synthase kinase-3 beta (Mus musculus) (UniProt Q9WV60); assay: Inhibition of GSK3-beta in mouse J774.1 cells assessed as reduction in LPS/IFN-gamma-induced NF-kappaB expression at 10 uM measured within 15 mins by Western blot analysis; type: cell-based
# Glycogen synthase kinase-3 beta (Mus musculus), sequence (Q9WV60 whole entry, looked up): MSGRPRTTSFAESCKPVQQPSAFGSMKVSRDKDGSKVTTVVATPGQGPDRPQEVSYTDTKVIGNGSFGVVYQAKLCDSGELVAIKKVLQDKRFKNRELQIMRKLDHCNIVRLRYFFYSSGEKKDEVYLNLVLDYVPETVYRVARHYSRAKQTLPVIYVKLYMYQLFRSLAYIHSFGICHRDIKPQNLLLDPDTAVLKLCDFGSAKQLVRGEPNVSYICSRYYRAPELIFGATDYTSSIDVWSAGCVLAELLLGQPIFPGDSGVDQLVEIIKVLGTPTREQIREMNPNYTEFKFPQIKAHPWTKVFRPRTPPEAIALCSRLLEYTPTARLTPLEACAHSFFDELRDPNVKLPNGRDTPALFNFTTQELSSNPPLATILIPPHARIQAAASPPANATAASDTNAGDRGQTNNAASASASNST
smiles,measurement,setting,value
O=C(O)c1cc(/N=N/c2ccc(S(=O)(=O)Nc3ccccn3)cc2)ccc1O,Activity,[1],inactive
same,Activity,[2],Active
same,Activity,[3],inactive
same,Activity,[4],Active
same,Activity,[5],Active
S=C(S)N1CCCC1,Activity,[6],inactive
same,Activity,[7],Active
same,Activity,[8],Active
same,Activity,[9],Active
C[S+]([O-])CCCCCCN=C=S (stereo not given),inhibition,[10],Active

# Source: ChEMBL document CHEMBL4813979
